Values of other authors as cited in PubChem BioAssay AID1259409 (Chemical Carcinogenesis Research Information System (CCRIS), 2018).

Test system: rodent chemically induced tumor inhibition, incidence and multiplicity
Test: CCRIS tumor inhibitor studies
Conditions: Route [Inhibitor]: ORAL

Structure (SMILES): Cc1c(-c2cnccn2)ssc1=S
- tumour outcome (control, treated, inhibition, significance) (Carcinogen: NITROSOBIS(2-OXOPROPYL)AMINE [60599-38-4], Dose [Inhibitor]: 200 PPM IN DIET FOR 4 WK BEGINNING 1 WK PRIOR TO FIRST CARCINOGEN DOSE (STUDY DURATION: 52 WK), Species: HAMSTER, Strain/Sex: SYRIAN/FEMALE, Target Tissue: Type of Lesion: LIVER: HEPATOCELLULAR ADENOMA, Dose [Carcinogen]: 10 MG/KG BW 1X/WK FOR 3 WK (STUDY DURATION: 52 WK)): 16.7%, 20.7%, -24%, not significant
- tumour outcome (control, treated, inhibition, significance) (Carcinogen: NITROSOBIS(2-OXOPROPYL)AMINE [60599-38-4], Dose [Inhibitor]: 200 PPM IN DIET FOR 4 WK BEGINNING 1 WK PRIOR TO FIRST CARCINOGEN DOSE (STUDY DURATION: 52 WK), Species: HAMSTER, Strain/Sex: SYRIAN/FEMALE, Target Tissue: Type of Lesion: LIVER: HEPATOCELLULAR CARCINOMA, Dose [Carcinogen]: 10 MG/KG BW 1X/WK FOR 3 WK (STUDY DURATION: 52 WK)): 6.7%, 6.9%, -3%, not significant
- tumour outcome (control, treated, inhibition, significance) (Carcinogen: NITROSOBIS(2-OXOPROPYL)AMINE [60599-38-4], Dose [Inhibitor]: 200 PPM IN DIET FOR 4 WK BEGINNING 1 WK PRIOR TO FIRST CARCINOGEN DOSE (STUDY DURATION: 52 WK), Species: HAMSTER, Strain/Sex: SYRIAN/FEMALE, Target Tissue: Type of Lesion: LUNG: ADENOCARCINOMA, Dose [Carcinogen]: 10 MG/KG BW 1X/WK FOR 3 WK (STUDY DURATION: 52 WK)): 46.7%, 37.9%, 19%, not significant
- tumour outcome (control, treated, inhibition, significance) (Carcinogen: NITROSOBIS(2-OXOPROPYL)AMINE [60599-38-4], Dose [Inhibitor]: 200 PPM IN DIET FOR 4 WK BEGINNING 1 WK PRIOR TO FIRST CARCINOGEN DOSE (STUDY DURATION: 52 WK), Species: HAMSTER, Strain/Sex: SYRIAN/FEMALE, Target Tissue: Type of Lesion: LUNG: ADENOMA, Dose [Carcinogen]: 10 MG/KG BW 1X/WK FOR 3 WK (STUDY DURATION: 52 WK)): 86.7%, 75.9%, 12%, not significant
- tumour outcome (control, treated, inhibition, significance) (Carcinogen: NITROSOBIS(2-OXOPROPYL)AMINE [60599-38-4], Dose [Inhibitor]: 200 PPM IN DIET FOR 4 WK BEGINNING 1 WK PRIOR TO FIRST CARCINOGEN DOSE (STUDY DURATION: 52 WK), Species: HAMSTER, Strain/Sex: SYRIAN/FEMALE, Target Tissue: Type of Lesion: PANCREAS: ADENOCARCINOMA, Dose [Carcinogen]: 10 MG/KG BW 1X/WK FOR 3 WK (STUDY DURATION: 52 WK)): 13/30 (43.3%), 20/29 (68.9%), -59%, not significant
- tumour outcome (control, treated, inhibition, significance) (Carcinogen: NITROSOBIS(2-OXOPROPYL)AMINE [60599-38-4], Dose [Inhibitor]: 400 PPM IN DIET FOR 4 WK BEGINNING 1 WK PRIOR TO FIRST CARCINOGEN DOSE (STUDY DURATION: 52 WK), Species: HAMSTER, Strain/Sex: SYRIAN/FEMALE, Target Tissue: Type of Lesion: GALL BLADDER: ADENOMA, Dose [Carcinogen]: 10 MG/KG BW 1X/WK FOR 3 WK (STUDY DURATION: 52 WK)): 13.3%, 21.1%, -59%, not significant
- tumour outcome (control, treated, inhibition, significance) (Carcinogen: NITROSOBIS(2-OXOPROPYL)AMINE [60599-38-4], Dose [Inhibitor]: 400 PPM IN DIET FOR 4 WK BEGINNING 1 WK PRIOR TO FIRST CARCINOGEN DOSE (STUDY DURATION: 52 WK), Species: HAMSTER, Strain/Sex: SYRIAN/FEMALE, Target Tissue: Type of Lesion: KIDNEY: RENAL CELL ADENOMA, Dose [Carcinogen]: 10 MG/KG BW 1X/WK FOR 3 WK (STUDY DURATION: 52 WK)): 3.3%, 3.4%, -3%, not significant
- tumour outcome (control, treated, inhibition, significance) (Carcinogen: NITROSOBIS(2-OXOPROPYL)AMINE [60599-38-4], Dose [Inhibitor]: 400 PPM IN DIET FOR 4 WK BEGINNING 1 WK PRIOR TO FIRST CARCINOGEN DOSE (STUDY DURATION: 52 WK), Species: HAMSTER, Strain/Sex: SYRIAN/FEMALE, Target Tissue: Type of Lesion: KIDNEY: RENAL CELL CARCINOMA, Dose [Carcinogen]: 10 MG/KG BW 1X/WK FOR 3 WK (STUDY DURATION: 52 WK)): 6.7%, 10.3%, -54%, not significant
- tumour outcome (control, treated, inhibition, significance) (Carcinogen: NITROSOBIS(2-OXOPROPYL)AMINE [60599-38-4], Dose [Inhibitor]: 400 PPM IN DIET FOR 4 WK BEGINNING 1 WK PRIOR TO FIRST CARCINOGEN DOSE (STUDY DURATION: 52 WK), Species: HAMSTER, Strain/Sex: SYRIAN/FEMALE, Target Tissue: Type of Lesion: LIVER: CHOLANGIOCELLULAR ADENOMA, Dose [Carcinogen]: 10 MG/KG BW 1X/WK FOR 3 WK (STUDY DURATION: 52 WK)): 6.7%, 0.0%, 100%, not significant
- outcome (Carcinogen: NITROSOBIS(2-OXOPROPYL)AMINE [60599-38-4], Dose [Inhibitor]: 400 PPM IN DIET FOR 4 WK BEGINNING 1 WK PRIOR TO FIRST CARCINOGEN DOSE (STUDY DURATION: 52 WK), Species: HAMSTER, Strain/Sex: SYRIAN/FEMALE, Target Tissue: Type of Lesion: LIVER: CHOLANGIOCELLULAR CARCINOMA, Dose [Carcinogen]: 10 MG/KG BW 1X/WK FOR 3 WK (STUDY DURATION: 52 WK)): 0.0%, 7.1%, -100%, not significant
- tumour outcome (control, treated, inhibition, significance) (Carcinogen: NITROSOBIS(2-OXOPROPYL)AMINE [60599-38-4], Dose [Inhibitor]: 400 PPM IN DIET FOR 4 WK BEGINNING 1 WK PRIOR TO FIRST CARCINOGEN DOSE (STUDY DURATION: 52 WK), Species: HAMSTER, Strain/Sex: SYRIAN/FEMALE, Target Tissue: Type of Lesion: LIVER: HEPATOCELLULAR ADENOMA, Dose [Carcinogen]: 10 MG/KG BW 1X/WK FOR 3 WK (STUDY DURATION: 52 WK)): 16.7%, 14.3%, 14%, not significant
- tumour outcome (control, treated, inhibition, significance) (Carcinogen: NITROSOBIS(2-OXOPROPYL)AMINE [60599-38-4], Dose [Inhibitor]: 400 PPM IN DIET FOR 4 WK BEGINNING 1 WK PRIOR TO FIRST CARCINOGEN DOSE (STUDY DURATION: 52 WK), Species: HAMSTER, Strain/Sex: SYRIAN/FEMALE, Target Tissue: Type of Lesion: LIVER: HEPATOCELLULAR CARCINOMA, Dose [Carcinogen]: 10 MG/KG BW 1X/WK FOR 3 WK (STUDY DURATION: 52 WK)): 6.7%, 7.1%, -6%, not significant
- tumour outcome (control, treated, inhibition, significance) (Carcinogen: NITROSOBIS(2-OXOPROPYL)AMINE [60599-38-4], Dose [Inhibitor]: 400 PPM IN DIET FOR 4 WK BEGINNING 1 WK PRIOR TO FIRST CARCINOGEN DOSE (STUDY DURATION: 52 WK), Species: HAMSTER, Strain/Sex: SYRIAN/FEMALE, Target Tissue: Type of Lesion: LUNG: ADENOCARCINOMA, Dose [Carcinogen]: 10 MG/KG BW 1X/WK FOR 3 WK (STUDY DURATION: 52 WK)): 46.7%, 17.2%, 63%, p<0.05
- tumour outcome (control, treated, inhibition, significance) (Carcinogen: NITROSOBIS(2-OXOPROPYL)AMINE [60599-38-4], Dose [Inhibitor]: 400 PPM IN DIET FOR 4 WK BEGINNING 1 WK PRIOR TO FIRST CARCINOGEN DOSE (STUDY DURATION: 52 WK), Species: HAMSTER, Strain/Sex: SYRIAN/FEMALE, Target Tissue: Type of Lesion: LUNG: ADENOMA, Dose [Carcinogen]: 10 MG/KG BW 1X/WK FOR 3 WK (STUDY DURATION: 52 WK)): 86.7%,58.6%, 32%, p<0.05
- tumour outcome (control, treated, inhibition, significance) (Carcinogen: NITROSOBIS(2-OXOPROPYL)AMINE [60599-38-4], Dose [Inhibitor]: 400 PPM IN DIET FOR 4 WK BEGINNING 1 WK PRIOR TO FIRST CARCINOGEN DOSE (STUDY DURATION: 52 WK), Species: HAMSTER, Strain/Sex: SYRIAN/FEMALE, Target Tissue: Type of Lesion: PANCREAS: ADENOCARCINOMA, Dose [Carcinogen]: 10 MG/KG BW 1X/WK FOR 3 WK (STUDY DURATION: 52 WK)): 13/30 (43.3%), 19/28 (67.9%), -57%, not significant
- tumour outcome (control, treated, inhibition, significance) (Dose [Inhibitor]: 0, 0.075% IN DIET FOR 4 WK BEGINNING 1 WK PRIOR TO CARCINOGEN TREATMENT (STUDY DURATION: 23 MO), Species: RAT, Strain/Sex: F344/MALE, Target Tissue: Type of Lesion: LIVER: ADENOMA, Dose [Carcinogen]: 25 UG IN 0.1 ML TRICAPRYLIN 5 D/WK FOR 2 WK, Promoter: NONE USED): 4/45 (9%), 0/46 (0%), 100%, p<0.05
- tumour outcome (control, treated, inhibition, significance) (Dose [Inhibitor]: 0, 0.075% IN DIET FOR 4 WK BEGINNING 1 WK PRIOR TO CARCINOGEN TREATMENT (STUDY DURATION: 23 MO), Species: RAT, Strain/Sex: F344/MALE, Target Tissue: Type of Lesion: LIVER: CARCINOMA, Dose [Carcinogen]: 25 UG IN 0.1 ML TRICAPRYLIN 5 D/WK FOR 2 WK, Promoter: NONE USED): 5/45 (11%), 0/46 (0%), 100%, p<0.05
